Tests used:
Conditions in all cases: 72 h
[1] = system: Caco-2; experiment: cell viability relative to DMSO; higher = less toxic
[2] = system: Calu-3; experiment: as above
[3] = system: U2OS; experiment: as above
[4] = system: HepG2; experiment: as above
[5] = system: Caco-2; experiment: relative viability EC50 (midpoint between 100% and the lowest measured viability); higher = less toxic
[6] = system: Calu-3; experiment: as above
[7] = system: U2OS; experiment: as above
[8] = system: HepG2; experiment: as above
[9] = system: Caco-2; experiment: drug sensitivity score (DSS) for viability; higher = more toxic; extreme values may be limits of the assay
[10] = system: Calu-3; experiment: as above
[11] = system: U2OS; experiment: as above
[12] = system: HepG2; experiment: as above
[13] = system: Vero E6; experiment: cell viability relative to DMSO; higher = less toxic
[14] = system: Vero E6; experiment: relative viability EC50 (midpoint between 100% and the lowest measured viability); higher = less toxic
[15] = system: Vero E6; experiment: drug sensitivity score (DSS) for viability; higher = more toxic; extreme values may be limits of the assay

| Compound | cell viability ([1]; 1 nM) [%] | cell viability ([1]; 10 nM) [%] | cell viability ([1]; 100 nM) [%] | cell viability ([1]; 1000 nM) [%] | cell viability ([1]; 10000 nM) [%] | cell viability ([2]; 1 nM) [%] | cell viability ([2]; 10 nM) [%] | cell viability ([2]; 100 nM) [%] | cell viability ([2]; 1000 nM) [%] | cell viability ([2]; 10000 nM) [%] | cell viability ([3]; 1 nM) [%] | cell viability ([3]; 10 nM) [%] | cell viability ([3]; 100 nM) [%] | cell viability ([3]; 1000 nM) [%] | cell viability ([3]; 10000 nM) [%] | cell viability ([4]; 1 nM) [%] | cell viability ([4]; 10 nM) [%] | cell viability ([4]; 100 nM) [%] | cell viability ([4]; 1000 nM) [%] | cell viability ([4]; 10000 nM) [%] | relative viability EC50 [5] [µM] | relative viability EC50 [6] [µM] | relative viability EC50 [7] [µM] | relative viability EC50 [8] [µM] | drug sensitivity score [9] | drug sensitivity score [10] | drug sensitivity score [11] | drug sensitivity score [12] | cell viability ([13]; 1 nM) [%] | cell viability ([13]; 10 nM) [%] | cell viability ([13]; 100 nM) [%] | cell viability ([13]; 1000 nM) [%] | cell viability ([13]; 10000 nM) [%] | relative viability EC50 [14] [µM] | drug sensitivity score [15] |
| --- | --- | --- | --- | --- | --- | --- | --- | --- | --- | --- | --- | --- | --- | --- | --- | --- | --- | --- | --- | --- | --- | --- | --- | --- | --- | --- | --- | --- | --- | --- | --- | --- | --- | --- | --- |
| CC[C@H](C)[C@H](NC(=O)[C@H](Cc1ccc(O)cc1)NC(=O)[C@@H](NC(=O)[C@H](CCCNC(=N)N)NC(=O)[C@@H](N)CC(=O)O)C(C)C)C(=O)N[C@@H](Cc1c[nH]cn1)C(=O)N1CCC[C@H]1C(=O)O [TXA127] | 104 | 110 | 98.2 | 99.4 | 89.4 | 95.2 | 90.6 | 97.9 | 89.2 | 105 | 98.9 | 98.7 | 99.1 | 93.3 | 96.9 | 96.2 | 105 | 89.3 | 104 | 92.4 | > 10 | > 10 | > 10 | > 10 | 0 | 0 | 0 | 0 | – | – | – | – | – | – | – |
| OCC[N+]12CN3CN(CN(C3)C1)C2 [Y-11] | 102 | 108 | 97.2 | 101 | 99.2 | 97.6 | 90.1 | 98 | 102 | 99.1 | – | – | – | – | – | 97.6 | 90.5 | 102 | 102 | 110 | > 10 | > 10 | – | > 10 | 0 | 0 | – | 0 | 102 | 99.1 | 106 | 96.2 | 100 | > 10 | 0 |
| COc1cc(Nc2c(C#N)cnc3cc(OCCCN4CCN(C)CC4)c(OC)cc23)c(Cl)cc1Cl [bosutinib] | 95.2 | 99.1 | 107 | 87.1 | 42.6 | – | – | – | – | – | 95.4 | 101 | 102 | 97.1 | 22.7 | 105 | 101 | 101 | 81.6 | 15.9 | 1.64 | – | 2.88 | 1.66 | 5.2 | – | 4.7 | 7.6 | 98.7 | 100 | 99.9 | 72.5 | 15.2 | 1.34 | 8.6 |
| CN(C)CCOC(c1ccc(Cl)cc1)c1ccccn1 (stereo not given) [carbinoxamine] | 110 | 98.7 | 97.2 | 99.5 | 95.3 | 108 | 110 | 101 | 97.4 | 103 | – | – | – | – | – | 99.9 | 95.8 | 102 | 104 | 99.6 | > 10 | > 10 | – | > 10 | 0 | 0 | – | 0 | 94.5 | 102 | 99.4 | 106 | 106 | > 10 | 0 |
| O=C(O)C(Cl)Cl [dichloroacetate] | 102 | 106 | 116 | 97.3 | 98.6 | – | – | – | – | – | 104 | 96.2 | 97.4 | 96 | 99.6 | 111 | 104 | 110 | 93.2 | 102 | > 10 | – | > 10 | > 10 | 0 | – | 0 | 0 | 104 | 96.3 | 96.1 | 104 | 96 | > 10 | 0 |
| COc1ccc(C(=O)c2ccccc2O)c(O)c1 [dioxybenzone] | 101 | 91 | 106 | 98.7 | 101 | 106 | 93.3 | 97.7 | 91.1 | 106 | 103 | 99 | 100 | 105 | 102 | 102 | 92 | 96.9 | 96 | 99.3 | > 10 | > 10 | > 10 | > 10 | 0 | 0 | 0 | 0 | 110 | 73.6 | 92.4 | 99.4 | 67.2 | – | 1.6 |
| Cc1nc(-c2ccc(OCC(C)C)c(C#N)c2)sc1C(=O)O [febuxostat] | 93.5 | 94 | 104 | 98.6 | 96.1 | – | – | – | – | – | 92.8 | 99.9 | 97.2 | 102 | 106 | 112 | 96.8 | 107 | 96.8 | 94.1 | > 10 | – | > 10 | > 10 | 0 | – | 0 | 0 | 94.3 | 98.5 | 100 | 101 | 96.4 | > 10 | 0 |
| CCOCc1cc(OC)c(-c2ccc(C[C@H](NC(=O)c3c(F)cccc3F)C(=O)O)cc2)c(OC)c1 [firategrast] | 99.3 | 94.6 | 104 | 93.9 | 101 | 103 | 94.1 | 86.4 | 99.7 | 98.5 | – | – | – | – | – | 104 | 105 | 90.3 | 99.3 | 96.6 | > 10 | > 10 | – | > 10 | 0 | 0 | – | 0 | 96.3 | 101 | 98.5 | 101 | 98 | > 10 | 0 |
| C[N+](C)(C)CCCCCC[N+](C)(C)C [hexamethonium] | 97.3 | 104 | 98.2 | 99.4 | 100 | 86.3 | 97.1 | 101 | 108 | 103 | 100 | 102 | 96.2 | 103 | 99.8 | 109 | 96.7 | 97.6 | 95.3 | 96.6 | > 10 | > 10 | > 10 | > 10 | 0 | 0 | 0 | 0 | – | – | – | – | – | – | – |
| O=C(O)C1=CCNCC1 [isoguvacine] | 106 | 99.5 | 108 | 106 | 98.7 | 105 | 99.1 | 104 | 94.5 | 94.4 | – | – | – | – | – | 91 | 98.5 | 91.9 | 96.1 | 95 | > 10 | > 10 | – | > 10 | 0 | 0 | – | 0 | 101 | 103 | 100 | 99.4 | 98.2 | > 10 | 0 |
| CCCCCCCCCCCC(=O)N(CCO)CCO [lauric-diethanolamide] | 107 | 90.1 | 98.7 | 92.7 | 101 | – | – | – | – | – | 99.4 | 95.9 | 101 | 98.5 | 102 | 94 | 99.1 | 93.5 | 96.8 | 90.1 | > 10 | – | > 10 | > 10 | 0 | – | 0 | 0 | 104 | 101 | 103 | 102 | 97.3 | > 10 | 0 |
| CC(=O)c1cc2c(o1)C(=O)c1ccccc1C2=O [napabucasin] | 103 | 98.5 | 95.3 | 55.8 | 0.5 | 124 | 109 | 101 | 106 | 56.4 | 102 | 98.5 | 102 | 98.9 | -0.4 | 102 | 109 | 97.1 | -0.9 | -0.3 | 1.13 | – | 3.07 | 0.291 | 10.7 | 1.8 | 5.8 | 18.4 | 88.7 | 99.5 | 89.6 | 88.8 | -0.4 | 2.24 | 7.4 |
| CC(=O)O[C@H]1C[C@@H]2CC[C@@H]3[C@H](CC[C@@]4(C)[C@H]3C[C@H]([N+]3(C)CCCCC3)[C@@H]4OC(C)=O)[C@@]2(C)C[C@@H]1[N+]1(C)CCCCC1 [pancuronium] | 106 | 99.9 | 97.8 | 97.5 | 94.1 | 114 | 101 | 103 | 104 | 99.5 | – | – | – | – | – | 98.2 | 103 | 101 | 106 | 102 | > 10 | > 10 | – | > 10 | 0 | 0 | – | 0 | 102 | 102 | 106 | 101 | 97.9 | > 10 | 0 |
| Cc1ccc(N(CC2=NCCN2)c2cccc(O)c2)cc1 [phentolamine] | 99 | 98.8 | 109 | 97.4 | 91.1 | 99.8 | 103 | 105 | 93.5 | 106 | 99.3 | 100 | 94.7 | 101 | 97.3 | 96.8 | 96.5 | 106 | 106 | 104 | > 10 | > 10 | > 10 | > 10 | 0 | 0 | 0 | 0 | – | – | – | – | – | – | – |
| CC(N)C12CC3CC(CC(C3)C1)C2 (stereo not given) [rimantadine] | 101 | 94.6 | 101 | 103 | 103 | 91 | 84.1 | 82.5 | 96.6 | 95.6 | 95.3 | 98 | 101 | 102 | 104 | 93.6 | 108 | 100 | 101 | 103 | > 10 | > 10 | > 10 | > 10 | 0 | 0 | 0 | 0 | – | – | – | – | – | – | – |
| Cc1ccc(C(=O)c2ccc(CC(=O)O)n2C)cc1 [tolmetin] | 90.4 | 94.6 | 94.6 | 90.7 | 105 | 88.7 | 97.8 | 92.4 | 90.9 | 96.6 | 96.8 | 102 | 92.4 | 97.8 | 102 | 109 | 109 | 100 | 108 | 93.7 | > 10 | > 10 | > 10 | > 10 | 0 | 0 | 0 | 0 | – | – | – | – | – | – | – |

Source: the supplement of paper PMC13380429
